Results from US11241448B2, “Methods for cancer therapy” (Millennium Pharmaceuticals, Inc., priority 2014, dated 2022).
Counter-ions that a name gives are not always drawn.

Tests used:
[1] = upon contact with either plasma or aqueous solutions; cited from earlier work
β5 proteasome = β5 proteasome (Homo sapiens, UniProt P28074); conditions: in contrast to bortezomib; cited from earlier work
receptors = conditions: read-out: IC50 values against receptors; cited from earlier work
[2] = target: β2 site of the 20S proteasome (Homo sapiens, UniProt Q99436); conditions: at higher concentrations; cited from earlier work
kinases = conditions: read-out: IC50 values against kinases; cited from earlier work
[3] = in contrast to bortezomib; cited from earlier work
tumor xenografts = conditions: in contrast to bortezomib; cited from earlier work
[4] = tested on: multiple myeloma patients who completed induction therapy; experiment: Clinical study of oral single-agent ixazomib maintenance therapy; type: in vivo, human
Text: These patients completed induction therapy and progressed to the maintenance phase.

[5] = tested on: patients with relapsed, refractory multiple myeloma; experiment: Exposure-response logistic regression analyses, phase 1 study of weekly single-agent ixazomib; type: in vivo, human; conditions: starting dose 3.0 mg weekly
Text: The methods and results of these analyses are described below.
The metric of exposure (Ex) was AUC per day (derived from individual clearance values using population pharmacokinetics) for both exposure logistic regression analyses Ex/S and Ex/E. Ex/S analysis was done on seven adverse events (AEs): non-hematologic (non-H) (fatigue, rash, peripheral neuropathy, diarrhea) and hematologic (H) (anemia, thrombocytopenia, neutropenia). The non-hematologic adverse events data were categorized into grade≥2 vs. grade≤1 groups while hematologic adverse events data were grouped into grade≥3 vs. grade≤2. The data were categorized in this way as maintenance treatment should have a tolerable adverse events profile and contribute to acceptable quality of life. Different cut-offs were used for hematologic and non-hematologic adverse events because grade 3 hematologic adverse events may have less impact on quality of life and be more manageable than grade 2 non-hematologic adverse events such as diarrhea. For exposure efficacy (Ex/E), data were categorized as: ≥stable disease (SD) vs. progressive disease (PD). Clinical benefit rate including SD achieved in relapsed or refractory patients may be a meaningful predictor of expected response in a maintenance setting. The logistic regression analyses were done using SPLUS software version 8.1.

[6] = tested on: patients with advanced solid tumors, lymphoma, RRMM, and relapsed or refractory AL amyloidosis; conditions: cited from earlier work
[7] = target: β1 site of the 20S proteasome (Homo sapiens, UniProt P28072); conditions: at higher concentrations; cited from earlier work
[8] = of 10 patients who improved during maintenance

CC(C)C[C@H](NC(=O)CNC(=O)c1cc(Cl)ccc1Cl)B1OC(=O)C(CC(=O)O)(CC(=O)O)O1 [ixazomib citrate]
hydrolysis to ixazomib [1]: rapidly hydrolyzes

CC(C)C[C@H](NC(=O)CNC(=O)c1cc(Cl)ccc1Cl)B(O)O [ixazomib]
dissociation rate from the proteasome (β5 proteasome): faster dissociation rate
IC50 (receptors): > 10 µM
inhibition of activity of the β2 site [2]: also inhibits the activity
IC50 (kinases): > 10 µM
tissue penetration [3]: more prolonged tissue penetration
antitumor activity in tumor xenografts (tumor xenografts): antitumor activity in a broader range of tumor xenografts
survival of patients who received maintenance ([4]; after follow-up of 25.1-33.9 months): alive
best overall response: complete response (CR) or better, percent of patients ([4]; n=21, maintenance therapy): 52%
best overall response: very good partial response (VGPR) or better, percent of patients ([4]; n=21, maintenance therapy): 71%
median duration of response ([4]; n=21, range 6.7-31.18): 21.65 months
improved response CR to sCR, patients [4, 8]: 2/10
improved response VGPR to CR, patients [4, 8]: 5/10
improved response VGPR to near-CR (nCR), patients [4, 8]: 2/10
improved response VGPR to stringent complete response (sCR), patients [4, 8]: 1/10
median time to first response (≥rapid response “PR”) ([4]; range 0.92-5.78): 0.99 months
median time to best response ([4]; range 1.02-24.74): 7.46 months
model-predicted clinical benefit rate (≥SD) [5]: ~33%
model-predicted incidence of grade≥2 diarrhea [5]: 19%
model-predicted incidence of grade≥2 fatigue [5]: 19%
model-predicted incidence of grade≥2 rash [5]: 16%
model-predicted incidence of grade≥3 neutropenia [5]: 10%
model-predicted incidence of grade≥3 thrombocytopenia [5]: 22%
clinical activity ([6]; advanced solid tumors, lymphoma, RRMM, AL amyloidosis): early signs of activity
emerging safety profile / tolerability ([6]; clinical studies): generally well tolerated
toxicity profile ([6]; clinical studies): favorable toxicity profile with low rates of peripheral neuropathy
inhibition of activity of the β1 site [7]: also inhibits the activity
